Test results as given in patent US10597388B2, “Pyridazinone herbicides” (FMC CORPORATION, priority 2014, dated 2020).

Legend:
Type in all cases: in vivo
[1] = tested on: barnyardgrass (Echinochloa crus-galli); test: Test B flooded paddy test; settings: 250 g ai/ha, Flood; visual rating on scale of 0 to 100 where 0 is no effect and 100 is complete control; 13 to 15 d after treatment
In short: (§1)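 Plants at the 2-leaf stage were flooded to 3 cm above soil, and test compounds were applied directly into the paddy water, which was held at that depth throughout. After 13 to 15 d in a greenhouse, injury was rated visually against untreated controls on a 0–100 scale (0 no effect, 100 complete control).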

[2] = tested on: sedge, umbrella (small-flower umbrella sedge, Cyperus difformis); test: Test B flooded paddy test; settings: 250 g ai/ha, Flood; visual rating on scale of 0 to 100 where 0 is no effect and 100 is complete control; 13 to 15 d after treatment
In short: as §1

[3] = tested on: ducksalad (Heteranthera limosa); test: Test B flooded paddy test; settings: 250 g ai/ha, Flood; visual rating on scale of 0 to 100 where 0 is no effect and 100 is complete control; 13 to 15 d after treatment
In short: as §1

rice (Oryza sativa) = test: Test B flooded paddy test; settings: 250 g ai/ha, Flood; visual rating on scale of 0 to 100 where 0 is no effect and 100 is complete control; 13 to 15 d after treatment
In short: as §1

[4] = tested on: wheat (Triticum aestivum); test: Test A greenhouse herbicide test, pre- and postemergence; settings: Postemergence
In short: (§2)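 Seeds sown in loam–sand blend got a preemergence directed soil spray of compound in non-phytotoxic solvent with surfactant. Postemergence treatment was given at 2–10 cm, one- to two-leaf stage. After ~10 d in greenhouse, injury was rated visually vs untreated controls, 0 (no effect) to 100 (complete control).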

[5] = tested on: foxtail, giant (giant foxtail, Setaria faberii); test: as above
In short: as §2

kochia (Kochia scoparia) = test: as above
In short: as §2

[6] = tested on: barnyardgrass (Echinochloa crus-galli); test: as above
In short: as §2

corn (Zea mays) = test: as above; settings: Postemergence
In short: as §2

[7] = tested on: ragweed (common ragweed, Ambrosia elatior); test: as above
In short: as §2

[8] = tested on: pigweed (Amaranthus retroflexus); test: as above
In short: as §2

[9] = tested on: ryegrass, Italian (Italian ryegrass, Lolium multiflorum); test: as above
In short: as §2

[10] = tested on: blackgrass (Alopecurus myosuroides); test: Test A greenhouse herbicide test, postemergence
In short: (§3)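 Greenhouse postemergence test: formulated chemicals sprayed on one- to two-leaf plants (2 to 10 cm), grown in loam soil blended with sand. Injury assessed visually about 10 d later against untreated controls, scored 0 (no effect) to 100 (complete control).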

[11] = tested on: galium (catchweed bedstraw, Galium aparine); test: Test A greenhouse herbicide test, postemergence
In short: as §3

[12] = 125 g ai/ha, 0 to 100 scale where 0 is no effect and 100 is complete control
[13] = 500 g ai/ha, visual rating after approx. 10 d, 0 to 100 scale (0 no effect, 100 complete control)
[14] = Postemergence, 125 g ai/ha, 0 to 100 scale where 0 is no effect and 100 is complete control
[15] = Postemergence, 500 g ai/ha, visual rating after approx. 10 d, 0 to 100 scale (0 no effect, 100 complete control)
[16] = Preemergence, 125 g ai/ha, 0 to 100 scale where 0 is no effect and 100 is complete control
[17] = Preemergence, 500 g ai/ha, 0 to 100 scale where 0 is no effect and 100 is complete control

SMILES: COc1nn(C)c(=O)c(-c2c(C)sc3ccc(Cl)cc23)c1OS(C)(=O)=O [Compound 135]
- Plant response rating, Barnyardgrass [1]: 0
- Plant response rating, Sedge, Umbrella [2]: 0
- Plant response rating, Ducksalad [3]: 0
- Plant response rating, Rice (rice (Oryza sativa)): 0
- Plant response rating, Wheat [4, 12]: 0
- Plant response rating, Wheat [4, 13]: 0
- Plant response rating, Foxtail, Giant [5, 14]: 0
- Plant response rating, Foxtail, Giant [5, 15]: 0
- Foxtail, Giant plant response rating [5, 16]: 20
- Plant response rating, Foxtail, Giant [5, 17]: 30
- Plant response rating, Kochia (kochia (Kochia scoparia); [14]): 0
- Plant response rating, Kochia (kochia (Kochia scoparia); [15]): 0
- Kochia plant response rating (kochia (Kochia scoparia); [16]): 0
- Plant response rating, Kochia (kochia (Kochia scoparia); [17]): 0
- Plant response rating, Barnyardgrass [6, 14]: 0
- Plant response rating, Barnyardgrass [6, 15]: 0
- Barnyardgrass plant response rating [6, 16]: 0
- Plant response rating, Barnyardgrass [6, 17]: 0
- Plant response rating, Corn (corn (Zea mays); [12]): 0
- Plant response rating, Corn (corn (Zea mays); [13]): 20
- Plant response rating, Ragweed [7, 14]: 30
- Plant response rating, Ragweed [7, 15]: 60
- Ragweed plant response rating [7, 16]: 30
- Plant response rating, Ragweed [7, 17]: 60
- Plant response rating, Pigweed [8, 14]: 0
- Plant response rating, Pigweed [8, 15]: 20
- Pigweed plant response rating [8, 16]: 30
- Plant response rating, Pigweed [8, 17]: 70
- Plant response rating, Ryegrass, Italian [9, 14]: 40
- Plant response rating, Ryegrass, Italian [9, 15]: 70
- Ryegrass, Italian plant response rating [9, 16]: 20
- Plant response rating, Ryegrass, Italian [9, 17]: 60
- Plant response rating, Blackgrass [10, 12]: 0
- Plant response rating, Blackgrass [10, 13]: 30
- Plant response rating, Galium [11, 12]: 60
- Plant response rating, Galium [11, 13]: 90

SMILES: CCOC(=O)Oc1c(C)nn(C)c(=O)c1-c1c(C(F)(F)F)ccc2ccccc12 [Compound 146]
- Plant response rating, Barnyardgrass [1]: 0
- Plant response rating, Sedge, Umbrella [2]: 0
- Plant response rating, Ducksalad [3]: 0
- Plant response rating, Rice (rice (Oryza sativa)): 0
- Plant response rating, Wheat [4, 12]: 0
- Plant response rating, Wheat [4, 13]: 70
- Plant response rating, Foxtail, Giant [5, 14]: 10
- Plant response rating, Foxtail, Giant [5, 15]: 70
- Foxtail, Giant plant response rating [5, 16]: 0
- Plant response rating, Foxtail, Giant [5, 17]: 50
- Plant response rating, Kochia (kochia (Kochia scoparia); [14]): 70
- Plant response rating, Kochia (kochia (Kochia scoparia); [15]): 100
- Kochia plant response rating (kochia (Kochia scoparia); [16]): 20
- Plant response rating, Kochia (kochia (Kochia scoparia); [17]): 70
- Plant response rating, Barnyardgrass [6, 14]: 0
- Plant response rating, Barnyardgrass [6, 15]: 30
- Barnyardgrass plant response rating [6, 16]: 0
- Plant response rating, Barnyardgrass [6, 17]: 50
- Plant response rating, Corn (corn (Zea mays); [12]): 0
- Plant response rating, Corn (corn (Zea mays); [13]): 30
- Plant response rating, Ragweed [7, 14]: 90
- Plant response rating, Ragweed [7, 15]: 100
- Plant response rating, Ragweed [7, 17]: 80
- Plant response rating, Pigweed [8, 14]: 90
- Plant response rating, Pigweed [8, 15]: 90
- Pigweed plant response rating [8, 16]: 100
- Plant response rating, Pigweed [8, 17]: 100
- Plant response rating, Ryegrass, Italian [9, 14]: 70
- Plant response rating, Ryegrass, Italian [9, 15]: 100
- Plant response rating, Ryegrass, Italian [9, 17]: 80
- Plant response rating, Blackgrass [10, 12]: 20
- Plant response rating, Blackgrass [10, 13]: 70
- Plant response rating, Galium [11, 12]: 80
- Plant response rating, Galium [11, 13]: 90

SMILES: CCC(=O)Oc1c(C)nn(C)c(=O)c1-c1c(C(F)(F)F)ccc2ccccc12 [Compound 147]
- Plant response rating, Barnyardgrass [1]: 0
- Plant response rating, Sedge, Umbrella [2]: 0
- Plant response rating, Ducksalad [3]: 0
- Plant response rating, Rice (rice (Oryza sativa)): 0
- Plant response rating, Wheat [4, 12]: 20
- Plant response rating, Wheat [4, 13]: 80
- Plant response rating, Foxtail, Giant [5, 14]: 30
- Plant response rating, Foxtail, Giant [5, 15]: 80
- Foxtail, Giant plant response rating [5, 16]: 10
- Plant response rating, Foxtail, Giant [5, 17]: 40
- Plant response rating, Kochia (kochia (Kochia scoparia); [14]): 80
- Plant response rating, Kochia (kochia (Kochia scoparia); [15]): 100
- Kochia plant response rating (kochia (Kochia scoparia); [16]): 50
- Plant response rating, Kochia (kochia (Kochia scoparia); [17]): 80
- Plant response rating, Barnyardgrass [6, 14]: 10
- Plant response rating, Barnyardgrass [6, 15]: 40
- Barnyardgrass plant response rating [6, 16]: 30
- Plant response rating, Barnyardgrass [6, 17]: 60
- Plant response rating, Corn (corn (Zea mays); [12]): 0
- Plant response rating, Corn (corn (Zea mays); [13]): 0
- Plant response rating, Ragweed [7, 14]: 90
- Plant response rating, Ragweed [7, 15]: 90
- Plant response rating, Ragweed [7, 17]: 90
- Plant response rating, Pigweed [8, 14]: 90
- Plant response rating, Pigweed [8, 15]: 90
- Pigweed plant response rating [8, 16]: 90
- Plant response rating, Pigweed [8, 17]: 100
- Plant response rating, Ryegrass, Italian [9, 14]: 90
- Plant response rating, Ryegrass, Italian [9, 15]: 100
- Plant response rating, Ryegrass, Italian [9, 17]: 100
- Plant response rating, Blackgrass [10, 12]: 60
- Plant response rating, Blackgrass [10, 13]: 90
- Plant response rating, Galium [11, 12]: 90
- Plant response rating, Galium [11, 13]: 100

SMILES: CC(=O)Oc1c(C)nn(C)c(=O)c1-c1c(C(F)(F)F)ccc2ccccc12 [Compound 148]
- Plant response rating, Barnyardgrass [1]: 0
- Plant response rating, Sedge, Umbrella [2]: 0
- Plant response rating, Ducksalad [3]: 0
- Plant response rating, Rice (rice (Oryza sativa)): 0
- Plant response rating, Wheat [4, 12]: 20
- Plant response rating, Wheat [4, 13]: 60
- Plant response rating, Foxtail, Giant [5, 14]: 30
- Plant response rating, Foxtail, Giant [5, 15]: 70
- Foxtail, Giant plant response rating [5, 16]: 20
- Plant response rating, Foxtail, Giant [5, 17]: 50
- Plant response rating, Kochia (kochia (Kochia scoparia); [14]): 80
- Plant response rating, Kochia (kochia (Kochia scoparia); [15]): 90
- Kochia plant response rating (kochia (Kochia scoparia); [16]): 30
- Plant response rating, Kochia (kochia (Kochia scoparia); [17]): 90
- Plant response rating, Barnyardgrass [6, 14]: 10
- Plant response rating, Barnyardgrass [6, 15]: 30
- Barnyardgrass plant response rating [6, 16]: 10
- Plant response rating, Barnyardgrass [6, 17]: 60
- Plant response rating, Corn (corn (Zea mays); [12]): 0
- Plant response rating, Corn (corn (Zea mays); [13]): 0
- Plant response rating, Ragweed [7, 14]: 90
- Plant response rating, Ragweed [7, 15]: 90
- Plant response rating, Ragweed [7, 17]: 80
- Plant response rating, Pigweed [8, 14]: 90
- Plant response rating, Pigweed [8, 15]: 90
- Pigweed plant response rating [8, 16]: 100
- Plant response rating, Pigweed [8, 17]: 100
- Plant response rating, Ryegrass, Italian [9, 14]: 90
- Plant response rating, Ryegrass, Italian [9, 15]: 90
- Plant response rating, Ryegrass, Italian [9, 17]: 100
- Plant response rating, Blackgrass [10, 12]: 60
- Plant response rating, Blackgrass [10, 13]: 80
- Plant response rating, Galium [11, 12]: 90
- Plant response rating, Galium [11, 13]: 90
